Results published in PubChem BioAssay AID1963869 (Molecular Pharmacology Branch, DTP, NCI, 2024).
“And” between values parts separate entries of the source, which are not always exact repeats. Equal entries are not always repeated.

System: KRAS patient-derived spheroids with HUVEC/MSC, viability
Test: Anticancer human tumor 323965-272-R-J2-PDC patient-derived pancreatic carcinoma cell line growth inhibition [KRAS2]
Details: for viability, T/C: stronger effect = lower value
In short: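 Combination screen of spheroid viability in tumor-cell co-cultures with endothelial (HUVEC) and mesenchymal stem cell stroma. Each agent was tested in half-log dilutions, topping at clinical Cmax or at 10 microM without a known Cmax.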

[1] = curve of first compound, second compound 0.1 µM
[2] = curve of first compound, second compound 0.316 µM
[3] = curve of first compound, second compound 1 µM
[4] = curve of first compound, second compound 3.16 µM
[5] = curve of first compound, second compound 10 µM
[6] = second compound 0.1 µM, first compound 0.0316 µM
[7] = second compound 0.1 µM, first compound 0.1 µM
[8] = second compound 0.1 µM, first compound 0.316 µM
[9] = second compound 0.1 µM, first compound 1 µM
[10] = second compound 0.1 µM, first compound 3.16 µM
[11] = second compound 0.1 µM, first compound 10 µM
[12] = second compound 0.316 µM, first compound 0.0316 µM
[13] = second compound 0.316 µM, first compound 0.1 µM
[14] = second compound 0.316 µM, first compound 0.316 µM
[15] = second compound 0.316 µM, first compound 1 µM
[16] = second compound 0.316 µM, first compound 3.16 µM
[17] = second compound 0.316 µM, first compound 10 µM
[18] = second compound 1 µM, first compound 0.0316 µM
[19] = second compound 1 µM, first compound 0.1 µM
[20] = second compound 1 µM, first compound 0.316 µM
[21] = second compound 1 µM, first compound 1 µM
[22] = second compound 1 µM, first compound 3.16 µM
[23] = second compound 1 µM, first compound 10 µM
[24] = second compound 3.16 µM, first compound 0.0316 µM
[25] = second compound 3.16 µM, first compound 0.1 µM
[26] = second compound 3.16 µM, first compound 0.316 µM
[27] = second compound 3.16 µM, first compound 1 µM
[28] = second compound 3.16 µM, first compound 3.16 µM
[29] = second compound 3.16 µM, first compound 10 µM
[30] = second compound 10 µM, first compound 0.0316 µM
[31] = second compound 10 µM, first compound 0.1 µM
[32] = second compound 10 µM, first compound 0.316 µM
[33] = second compound 10 µM, first compound 1 µM
[34] = second compound 10 µM, first compound 3.16 µM
[35] = second compound 10 µM, first compound 10 µM
[36] = second compound 0.1 µM, first compound 0.00316 µM
[37] = second compound 0.1 µM, first compound 0.01 µM
[38] = second compound 0.316 µM, first compound 0.00316 µM
[39] = second compound 0.316 µM, first compound 0.01 µM
[40] = second compound 1 µM, first compound 0.00316 µM
[41] = second compound 1 µM, first compound 0.01 µM
[42] = second compound 3.16 µM, first compound 0.00316 µM
[43] = second compound 3.16 µM, first compound 0.01 µM
[44] = second compound 10 µM, first compound 0.00316 µM
[45] = second compound 10 µM, first compound 0.01 µM
[46] = compound alone, run of 08/26/2021
[47] = compound alone, run of 09/02/2021
[48] = second compound 0.1 µM, first compound 0.000316 µM
[49] = second compound 0.1 µM, first compound 0.001 µM
[50] = second compound 0.316 µM, first compound 0.000316 µM
[51] = second compound 0.316 µM, first compound 0.001 µM
[52] = second compound 1 µM, first compound 0.000316 µM
[53] = second compound 1 µM, first compound 0.001 µM
[54] = second compound 3.16 µM, first compound 0.000316 µM
[55] = second compound 3.16 µM, first compound 0.001 µM
[56] = second compound 10 µM, first compound 0.000316 µM
[57] = second compound 10 µM, first compound 0.001 µM
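Note: spheroids exposed to agents for 7 days.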
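Throughout, for viability, T/C: 100% = DMSO vehicle control viability.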

COc1cc(Nc2ncc3c(n2)-c2ccc(Cl)cc2C(c2c(F)cccc2OC)=NC3)ccc1C(=O)O + C=CC(=O)N1CCN(c2nc(=O)n(-c3c(C)ccnc3C(C)C)c3nc(-c4c(O)cccc4F)c(F)cc23)C(C)C1
IC50 [1]: < 31.6 nM
IC50 [2]: < 31.6 nM
IC50 [3]: < 31.6 nM
IC50 [4]: < 31.6 nM
IC50 [5]: < 31.6 nM
viability, T/C [6]: 53.5%
viability, T/C [7]: 36.2%
viability, T/C [8]: 26.4%
viability, T/C [9]: 31.7%
viability, T/C [10]: 43.3%
viability, T/C [11]: 46.3%
viability, T/C [12]: 54.1%
viability, T/C [13]: 35.3%
viability, T/C [14]: 28.8%
viability, T/C [15]: 30.1%
viability, T/C [16]: 39.8%
viability, T/C [17]: 51.6%
viability, T/C [18]: 53%
viability, T/C [19]: 34%
viability, T/C [20]: 24.2%
viability, T/C [21]: 33.2%
viability, T/C [22]: 47.7%
viability, T/C [23]: 51.5%
viability, T/C [24]: 46.5%
viability, T/C [25]: 27.5%
viability, T/C [26]: 22.2%
viability, T/C [27]: 34.1%
viability, T/C [28]: 34.7%
viability, T/C [29]: 38.4%
viability, T/C [30]: 27.3%
viability, T/C [31]: 18.9%
viability, T/C [32]: 20.2%
viability, T/C [33]: 23%
viability, T/C [34]: 23.7%
viability, T/C [35]: 27.1%

CCN1CCN(Cc2ccc(Nc3ncc(F)c(-c4cc(F)c5nc(C)n(C(C)C)c5c4)n3)nc2)CC1 + COc1cc2nc(C)nc(NC(C)c3cc(N)cc(C(F)(F)F)c3)c2cc1OC1CCOC1
IC50 [1]: 90.2 nM
IC50 [2]: 25.9 nM
IC50 [3]: 32.6 nM
IC50 [4]: 21.9 nM
IC50 [5]: 75.6 nM
viability, T/C [36]: 85.5%
viability, T/C [37]: 78.3%
viability, T/C [6]: 59.5%
viability, T/C [7]: 48.2%
viability, T/C [8]: 44.4%
viability, T/C [9]: 51.4%
viability, T/C [38]: 75.2%
viability, T/C [39]: 59%
viability, T/C [12]: 50%
viability, T/C [13]: 41.7%
viability, T/C [14]: 37.8%
viability, T/C [15]: 48.3%
viability, T/C [40]: 65.7%
viability, T/C [41]: 59.9%
viability, T/C [18]: 51.4%
viability, T/C [19]: 42.9%
viability, T/C [20]: 41%
viability, T/C [21]: 48.3%
viability, T/C [42]: 85.2%
viability, T/C [43]: 64%
viability, T/C [24]: 43.8%
viability, T/C [25]: 39.1%
viability, T/C [26]: 32.7%
viability, T/C [27]: 49.5%
viability, T/C [44]: 86.6%
viability, T/C [45]: 74%
viability, T/C [30]: 53.4%
viability, T/C [31]: 48.7%
viability, T/C [32]: 39.9%
viability, T/C [33]: 22.4%

C=CC(=O)N1CCN(c2nc(=O)n(-c3c(C)ccnc3C(C)C)c3nc(-c4c(O)cccc4F)c(F)cc23)C(C)C1 (stereo not drawn)
viability, T/C (compound 0.1 µM): 58.9% [middle of 17 runs]
viability, T/C (compound 0.316 µM): 58.4% [middle of 17 runs]
viability, T/C (compound 1 µM): 59.1% [middle of 17 runs]
viability, T/C (compound 3.16 µM): 60.4% [middle of 17 runs]
viability, T/C (compound 10 µM): 52% [middle of 17 runs]
IC50 (compound alone, run of 08/19/2021): > 10000 nM and 2730 nM
IC50 [46]: > 10000 nM and 7820 nM and 9640 nM
IC50 [47]: > 10000 nM

Cn1nccc1Nc1nccc(-c2cc3c(s2)C(C)(C)N(CCN2CCOCC2)C3=O)n1 + CNCc1ccccc1-c1csc(C(C)Nc2nc(C)nc3cc(OC)c(OC)cc23)c1
IC50 [1]: 1050 nM
IC50 [2]: 1360 nM
IC50 [3]: 3970 nM
IC50 [4]: 1660 nM
IC50 [5]: < 31.6 nM
viability, T/C [6]: 98.5%
viability, T/C [7]: 84.4%
viability, T/C [8]: 64.6%
viability, T/C [9]: 51.3%
viability, T/C [10]: 41%
viability, T/C [11]: 37.2%
viability, T/C [12]: 86.9%
viability, T/C [13]: 79.3%
viability, T/C [14]: 71.9%
viability, T/C [15]: 52.2%
viability, T/C [16]: 41.7%
viability, T/C [17]: 38.1%
viability, T/C [18]: 95.5%
viability, T/C [19]: 89.4%
viability, T/C [20]: 72.8%
viability, T/C [21]: 67.3%
viability, T/C [22]: 48.1%
viability, T/C [23]: 45%
viability, T/C [24]: 92.6%
viability, T/C [25]: 78.5%
viability, T/C [26]: 70%
viability, T/C [27]: 54.9%
viability, T/C [28]: 43.2%
viability, T/C [29]: 30%
viability, T/C [30]: 0.23%
viability, T/C [31]: 0.22%
viability, T/C [32]: 0.19%
viability, T/C [33]: 0.17%
viability, T/C [34]: 0.17%
viability, T/C [35]: 0.19%

CN(C)C/C=C/C(=O)Nc1cc2c(Nc3ccc(F)c(Cl)c3)ncnc2cc1O[C@H]1CCOC1 + C=CC(=O)N1CCN(c2nc(=O)n(-c3c(C)ccnc3C(C)C)c3nc(-c4c(O)cccc4F)c(F)cc23)C(C)C1
IC50 [1]: 6.19 nM
IC50 [2]: 1.29 nM
IC50 [3]: 1.87 nM
IC50 [4]: 4.24 nM
IC50 [5]: 1.48 nM
viability, T/C [48]: 63.3%
viability, T/C [49]: 50.9%
viability, T/C [36]: 49.6%
viability, T/C [37]: 57.7%
viability, T/C [6]: 43.1%
viability, T/C [7]: 44%
viability, T/C [50]: 61.3%
viability, T/C [51]: 50%
viability, T/C [38]: 47.3%
viability, T/C [39]: 42.4%
viability, T/C [12]: 41.8%
viability, T/C [13]: 40.5%
viability, T/C [52]: 58.6%
viability, T/C [53]: 54.2%
viability, T/C [40]: 50.5%
viability, T/C [41]: 41.3%
viability, T/C [18]: 37.8%
viability, T/C [19]: 44.6%
viability, T/C [54]: 58.1%
viability, T/C [55]: 58%
viability, T/C [42]: 50.1%
viability, T/C [43]: 48%
viability, T/C [24]: 40.5%
viability, T/C [25]: 42.5%
viability, T/C [56]: 62.2%
viability, T/C [57]: 53%
viability, T/C [44]: 44.6%
viability, T/C [45]: 45.6%
viability, T/C [30]: 45.7%
viability, T/C [31]: 43.5%

CN(C)C/C=C/C(=O)Nc1cc2c(Nc3ccc(F)c(Cl)c3)ncnc2cc1O[C@H]1CCOC1 + CC1OCC2(CCN(c3cnc(Sc4ccnc(N)c4Cl)c(N)n3)CC2)C1N
IC50 [1]: > 100 nM
IC50 [2]: 0.979 nM
IC50 [3]: > 100 nM
IC50 [4]: < 0.316 nM
IC50 [5]: > 100 nM
viability, T/C [48]: 68.4%
viability, T/C [49]: 75.9%
viability, T/C [36]: 65.4%
viability, T/C [37]: 57.8%
viability, T/C [6]: 57.7%
viability, T/C [7]: 58.6%
viability, T/C [50]: 63%
viability, T/C [51]: 49%
viability, T/C [38]: 48.1%
viability, T/C [39]: 38.1%
viability, T/C [12]: 41.1%
viability, T/C [13]: 44.6%
viability, T/C [52]: 96.4%
viability, T/C [53]: 95.8%
viability, T/C [40]: 78.5%
viability, T/C [41]: 75.2%
viability, T/C [18]: 64.6%
viability, T/C [19]: 63.3%
viability, T/C [54]: 39%
viability, T/C [55]: 33%
viability, T/C [42]: 27.4%
viability, T/C [43]: 27.7%
viability, T/C [24]: 28.6%
viability, T/C [25]: 34.7%
viability, T/C [56]: 107%
viability, T/C [57]: 96.9%
viability, T/C [44]: 70.5%
viability, T/C [45]: 56%
viability, T/C [30]: 59.8%
viability, T/C [31]: 55.9%

CC1OCC2(CCN(c3cnc(Sc4ccnc(N)c4Cl)c(N)n3)CC2)C1N (stereo not drawn)
viability, T/C (compound 0.0316 µM): 77.5% and 85.9% and 85.1%
viability, T/C (compound 0.316 µM): 60% [middle of 19 runs]
IC50 [46]: 785 nM [middle of 5 runs]
IC50 [47]: 535 nM [middle of 6 runs]
IC50 (curve of compound): 1.1 µM [middle of 5 runs]
